Experiments:
[1] = tested on: male or female NMRI mice; assay: Anorectic action: cumulated evaporated milk consumption after 24 h feed withdrawal; type: in vivo
Procedure: The anorectic action was tested on male or female NMRI mice. After withdrawal of feed for 24 hours, the test preparation was administered via a stomach tube. Kept individually and with free access to drinking water, the animals were offered evaporated milk 30 minutes after the administration of the preparation. The consumption of evaporated milk was determined half-hourly for 3 hours and the general condition of the animals was observed. The measured milk consumption was compared with that of untreated control animals.

melting point: 160 °C
SMILES: NS(=O)(=O)c1ccc(C2=NC3(O)c4ccc(Cl)cc4CC3S2)cc1 (stereo not drawn) [Example 5, 4-(6-Chloro-3a-hydroxy-8,8a-dihydro-3aH-indeno[1,2-d]thiazol-2-yl)benzenesulfonamide]
Reduction of the cumulated milk consumption in % of the control ([1]; male animals, oral dose 50 mg/kg, compared with untreated control animals): 95%
cumulated milk consumption of the treated animals ([1]; oral dose 50 mg/kg via stomach tube, N=5, milk consumption determined half-hourly for 3 hours): 5/0.08 ml

Source: patent publication US6444669B1, “8,8A-DIHYDROINDENO[1,2-D]THIAZOLE DERIVATIVES WHICH CARRY IN THE 2-POSITION A SUBSTITUENT HAVING A SULFONAMIDE STRUCTURE OR SULFONE STRUCTURE; PROCESSES FOR THEIR PREPARATION AND THEIR USE AS MEDICAMENTS” (Aventis Pharma Deutschland GmbH, priority 2000, dated 2002)
